Patent US20100130579A1, “CANCER THERAPY” (Georgetown University, priority 2006, published 2010)

Test system: cyclin B1
Experiment: RT-PCR of cyclin B1 mRNA in prostate cancer cells
Assay type: cell-based, human
Settings: PC3 or LNCaP cells, mahanine treatment
Procedure: FIG. 5. RASSF1A down-regulates cyclin D1 expression in prostate cancer cells but not other cyclins. […] RNA was extracted, and RT-PCR assays were performed to detect RASSF1A, cyclin A1, B1, D1, E1 and GAPDH mRNAs. Representative photograph from an experiment that was repeated thrice. Quantitative estimations of relative levels of cyclin D1 and RASSF1A mRNAs were determined by densitometric measurements of RT-PCR gels from three independent experiments after normalization with GAPDH.
Genes of interest were amplified using 500 ng of total RNA reverse-transcribed to cDNA using a Superscript II kit (Invitrogen) with random hexamers. Human-specific primers were designed using the Primer Quest program and purchased from Integrated DNA Technologies, Inc (Coralville, Iowa). […] After amplification, PCR products were separated on 1.5% agarose gels and visualized by ethidium bromide fluorescence using the Fuji LAS-1000 Imager. […] Band intensities were quantified by using ImageJ software (NIH, Bethesda, Md.).

For `CC(C)=CCC[C@@]1(C)C=Cc2c(c(C)cc3c2[nH]c2cc(O)ccc23)O1` [mahanine], the “cyclin B1 expression (RT-PCR)” value was “did not alter the expression”.
